Results on 19 compounds are retold here after PubChem BioAssay AID330 (DTP/NCI, 2004).

The subject of this assay is P388 leukemia ip, CD2F1 mice, survival T/C. Kind of assay: NCI In Vivo Anticancer Drug Screen. Data for tumor model P388 Leukemia (intraperitoneal) in CD2F1 (CDF1) mice. The note with it: endpoint: median survival time, higher = longer survival. The gist of the method:
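Mice carrying the transplanted tumor received test compound or vehicle. Survival was recorded in each group, and the value is the treated-group measurement divided by that of the vehicle-treated control group.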

Setting [1] is: dose: 50.0 mg/kg/injection, schedule: Q01DX005 (ip), vehicle: saline with Tween-80.
Where [2] appears, read: dose: 100.0 mg/kg/injection, schedule: Q01DX005 (ip), vehicle: saline with Tween-80.
[3] abbreviates: dose: 12.5 mg/kg/injection, schedule: Q01DX005 (ip), vehicle: Klucel (hydroxypropylcellulose) (HPC).
Where [4] appears, read: dose: 25.0 mg/kg/injection, schedule: Q01DX005 (ip), vehicle: Klucel (hydroxypropylcellulose) (HPC).
Setting [5] is: dose: 60.0 mg/kg/injection, schedule: Q01DX005 (ip), vehicle: saline with Tween-80.
[6] abbreviates: dose: 120.0 mg/kg/injection, schedule: Q01DX005 (ip), vehicle: saline with Tween-80.
The mark [7] stands for this setting: dose: 240.0 mg/kg/injection, schedule: Q01DX005 (ip), vehicle: saline with Tween-80.
The mark [8] stands for this setting: dose: 200.0 mg/kg/injection, schedule: Q01DX005 (ip), vehicle: saline with Tween-80.
Setting [9] is: dose: 60.0 mg/kg/injection, schedule: Q01DX005 (ip), vehicle: Klucel (hydroxypropylcellulose) (HPC).
Where [10] appears, read: dose: 120.0 mg/kg/injection, schedule: Q01DX005 (ip), vehicle: Klucel (hydroxypropylcellulose) (HPC).
[11] abbreviates: dose: 240.0 mg/kg/injection, schedule: Q01DX005 (ip), vehicle: Klucel (hydroxypropylcellulose) (HPC).
Where [12] appears, read: dose: 50.0 mg/kg/injection, schedule: Q01DX009 (ip), vehicle: saline with Tween-80.
[13] abbreviates: dose: 100.0 mg/kg/injection, schedule: Q01DX009 (ip), vehicle: saline with Tween-80.
[14] abbreviates: dose: 200.0 mg/kg/injection, schedule: Q01DX009 (ip), vehicle: saline with Tween-80.
Where [15] appears, read: dose: 60.0 mg/kg/injection, schedule: Q01DX005 (ip), vehicle: saline.
The mark [16] stands for this setting: dose: 120.0 mg/kg/injection, schedule: Q01DX005 (ip), vehicle: saline.
Where [17] appears, read: dose: 240.0 mg/kg/injection, schedule: Q01DX005 (ip), vehicle: saline.

“And” between values parts separate entries of the source, which are not always exact repeats. Equal entries are not always repeated. Toxic doses and inconclusive results are not listed.

In the case of `O=c1[nH]cnc2c1ccc1[nH]ncc12`, the T/C is 88 % of control (dose: 6.25 mg/kg/injection, schedule: Q01DX005 (ip), vehicle: saline with Tween-80); 90 % of control (dose: 12.5 mg/kg/injection, schedule: Q01DX005 (ip), vehicle: saline with Tween-80); 86 % of control (dose: 25.0 mg/kg/injection, schedule: Q01DX005 (ip), vehicle: saline with Tween-80); 97 % of control under setting [1]; 99 % of control under setting [2].

Consider `CC(C)(C)[Si](C)(C)O[C@H]1C[C@@H](O[Si](C)(C)C(C)(C)C)C=C1S(=O)(=O)c1ccccc1`, for which the T/C was 101 % of control under setting [3]; 107 % of control under setting [4]; 111 % of control (dose: 50.0 mg/kg/injection, schedule: Q01DX005 (ip), vehicle: Klucel (hydroxypropylcellulose) (HPC)).

Regarding `BrC1C2CC/C=C\CCC12` (stereo not drawn), the T/C by setting is: under setting [5], 100 % of control; under setting [6], 104 % of control; under setting [7], 104 % of control.

Regarding `COc1cc2cc(c1Cl)N(C)C(=O)CC(O)C1(C)OC1C(C)C1CC(O)(NC(=O)O1)C(OC)/C=C/C=C(C)C2OC` (stereo not drawn), the T/C runs as follows: (dose: 4.0 micrograms/kg/injection, schedule: Q01DX009 (ip), vehicle: distilled water + Tween-80 + alcohol) 97 % of control; (dose: 8.0 micrograms/kg/injection, schedule: Q01DX009 (ip), vehicle: distilled water + Tween-80 + alcohol) 104 % of control; (dose: 16.0 micrograms/kg/injection, schedule: Q01DX009 (ip), vehicle: distilled water + Tween-80 + alcohol) 97 % of control; (dose: 32.0 micrograms/kg/injection, schedule: Q01DX009 (ip), vehicle: distilled water + Tween-80 + alcohol) 107 % of control; (dose: 32.0 micrograms/kg/injection, schedule: Q01DX009 (ip), vehicle: distilled water + alcohol) 99 % of control; (dose: 64.0 micrograms/kg/injection, schedule: Q01DX009 (ip), vehicle: distilled water + alcohol) 101 % of control. For the same compound, the T/C (dose: 128.0 micrograms/kg/injection, schedule: Q01DX009 (ip), vehicle: distilled water + alcohol) was 101 % of control.

As to `O=c1[nH]ncn2nc3ccccc3c12`, the T/C runs as follows: under setting [1], 100 % of control; under setting [2], 100 % of control; under setting [8], 104 % of control.

In the case of `NC(=S)N/N=C1/C(=O)N(c2ccccc2)C(=O)C1C(=O)Nc1ccccc1` (stereo not drawn), the T/C runs as follows: (dose: 100.0 mg/kg/injection, schedule: Q01DX001 (ip), vehicle: saline with Tween-80) 100 % of control; (dose: 200.0 mg/kg/injection, schedule: Q01DX001 (ip), vehicle: saline with Tween-80) 106 % of control; (dose: 400.0 mg/kg/injection, schedule: Q01DX001 (ip), vehicle: saline with Tween-80) 98 % of control.

Regarding `Cc1nc(Cl)c(C)c(C(=O)O)n1`, the T/C was 117 % of control (dose: 6.25 mg/kg/injection, schedule: Q01DX009 (ip), vehicle: other); 114 % of control (dose: 12.5 mg/kg/injection, schedule: Q01DX009 (ip), vehicle: other); 107 % of control (dose: 25.0 mg/kg/injection, schedule: Q01DX009 (ip), vehicle: other); 99 % of control (dose: 50.0 mg/kg/injection, schedule: Q01DX009 (ip), vehicle: other); 98 % of control (dose: 100.0 mg/kg/injection, schedule: Q01DX009 (ip), vehicle: other).

Turning to `COc1ccc(/C=C2/C(=O)N(c3ccccc3)N=C2C)cc1OC`, the T/C under setting [9] is 101 % of control, the T/C under setting [10] is 93 % of control and the T/C under setting [11] was 90 % of control.

For the compound `Cc1c(S)cnc2ccccc12`, the T/C is 99 % of control under setting [1] and 93 % of control under setting [2].

Regarding `CC(=NCc1ccccc1)c1c(C)cc(=O)n(-c2ccccc2)c1O`, the T/C reads like this: under setting [5], 96 % of control; under setting [6], 97 % of control; under setting [7], 89 % of control.

As for `CCC(c1ccccc1)C(C#N)c1ccccc1` (stereo not drawn), the T/C was 95 % of control (dose: 25.0 mg/kg/injection, schedule: Q01DX009 (ip), vehicle: saline with Tween-80); 95 % of control under setting [12]; 94 % of control under setting [13]; 90 % of control under setting [14].

On to `Cc1cc(Br)c2nsnc2c1[N+](=O)[O-]`, for which the T/C under setting [1] is 122 % of control.

Turning to `O=C1C2=C(Nc3cc([N+](=O)[O-])ccc3N2)OC1c1ccc(C2OC3=C(Nc4ccc([N+](=O)[O-])cc4N3)C2=O)cc1` (stereo not drawn), the T/C is 102 % of control under setting [9], 96 % of control under setting [10] and 99 % of control under setting [11].

Turning to `Cc1cc(O)c(C=Nc2ccc3ccccc3c2)c2c1C(=O)Oc1c(CO)c(O)c(C(=O)O)c(C=Nc3ccc4ccccc4c3)c1O2`, the T/C was 86 % of control and 90 % of control under setting [3]; 104 % of control under setting [4]; 88 % of control and 92 % of control (dose: 100.0 mg/kg/injection, schedule: Q01DX005 (ip), vehicle: Klucel (hydroxypropylcellulose) (HPC)).

On to `COc1ccc2c(=O)cc[nH]c2c1OC`, for which the T/C is, setting by setting: under setting [1], 100 % of control; under setting [2], 94 % of control; under setting [8], 94 % of control.

For `CCOP(=O)(CS(=O)(=O)CCC1(C)NC(=O)NC1=O)OCC` (stereo not drawn), the T/C is 101 % of control under setting [15], 103 % of control under setting [16] and 103 % of control under setting [17].

Regarding `COc1cccc2c1C(=O)c1c(O)c3c(c(O)c1C2=O)C[C@@](O)(C(O)CO)C[C@@H]3OC1CC(NCc2ccccc2)C(O)C(C)O1` (stereo partly drawn), the T/C reads like this: (dose: 0.39 mg/kg/injection, schedule: Q01DX009 (ip), vehicle: water) 158 % of control and 167 % of control; (dose: 0.78 mg/kg/injection, schedule: Q01DX009 (ip), vehicle: water) 157 % of control and 162 % of control and 169 % of control; (dose: 1.18 mg/kg/injection, schedule: Q04DX003 (ip), vehicle: water) 106 % of control; (dose: 1.56 mg/kg/injection, schedule: Q01DX009 (ip), vehicle: water) 157 % of control and 190 % of control and 196 % of control; (dose: 2.35 mg/kg/injection, schedule: Q04DX003 (ip), vehicle: water) 106 % of control; (dose: 3.13 mg/kg/injection, schedule: Q01DX009 (ip), vehicle: water) 163 % of control and 176 % of control and 192 % of control. Besides, the T/C (dose: 9.4 mg/kg/injection, schedule: Q04DX003 (ip), vehicle: water) was 116 % of control.

Take `O=C(Nc1cccc2c(O)c(N=Nc3ccc(S(=O)(=O)Nc4nccs4)cc3)cc(N=Nc3ccc(S(=O)(=O)Nc4nccs4)cc3)c12)C(Cl)Cl`: the T/C reads like this: under setting [12], 102 % of control; under setting [13], 106 % of control; under setting [14], 98 % of control.

On to `CC(=O)/C(=C\c1ccco1)C(=O)CCN(C)C`, for which the T/C is 108 % of control and 109 % of control and 115 % of control under setting [15]; 106 % of control and 118 % of control and 120 % of control under setting [16]; 108 % of control and 115 % of control under setting [17]; 101 % of control (dose: 480.0 mg/kg/injection, schedule: Q01DX005 (ip), vehicle: saline).
